# Measured values from patent US6774086B2, “3-Aminocarbonyl-substituted benzoylcyclohexanediones” (Bayer CropScience GmbH, priority 2001, dated 2004).
# Key:
# Format in all cases: in vivo
# Sinapis arvensis [1] = test: pre-emergence herbicidal action; details: 320 g a.i./ha, scored visually after 3 to 4 weeks vs untreated controls
# Source text: (§1) Seeds of mono- and dicotyledonous harmful plants are placed in sandy loam in cardboard pots and covered with soil. The compounds according to the invention, which are formulated in the form of wettable powders or emulsion concentrates, are then applied to the surface of the soil cover as aqueous suspension or emulsion at a dosage rate stated in table B1 with an application rate of 600 to 800 l of water per ha (converted). After the treatment, the pots are placed into a greenhouse and kept under good growth conditions for the harmful plants. The damage to the plants or their emergence is scored visually after the test plants have emerged after an experimental time of 3 to 4 weeks by comparison with untreated controls.
# Stellaria media [2] = test: pre-emergence herbicidal action; details: 320 g a.i./ha, scored visually after 3 to 4 weeks vs untreated controls
# Source text: as §1
# Amaranthus retroflexus [3] = test: pre-emergence herbicidal action; details: 320 g a.i./ha, scored visually after 3 to 4 weeks vs untreated controls
# Source text: as §1
# Monochoria vaginalis = test: post-emergence action against harmful plants
# Method: (§2) Seeds of mono- and dicotyledonous harmful plants are placed in sandy loam in cardboard pots, covered with soil and grown in the greenhouse under good growth conditions. 2 to 3 weeks after sowing, the test plants are treated in the three-leaf stage. The compounds according to the invention, which are formulated as wettable powders or as emulsion concentrates, are sprayed at a dosage rate stated in table B2 to the surface of the green plant parts at an application rate of 600 to 800 l of water per ha (converted). After the test plants have been left to stand in the greenhouse for approx. 3 to 4 weeks under optimal growth conditions, the effect of the compounds is scored by comparison with compounds of the prior art.
# (§3) In further greenhouse experiments, seeds of barley and of monocotyledonous and dicotyledonous harmful plants are placed in sandy loam, covered with soil and placed in the greenhouse until the plants have developed two to three true leaves. Then, they are treated with the compounds of the formula (I) according to the invention as described above under item 2.
# Sagittaria pygmaea = test: post-emergence action against harmful plants
# Method: as §2, §3
# Cyperus serotinus = test: post-emergence action against harmful plants
# Method: as §2, §3
# Oryza sativa = test: post-emergence action, crop plant damage
# Sinapis arvensis [4] = test: post-emergence herbicidal action; details: three-leaf stage, 320 g a.i./ha, scored after approx. 3 to 4 weeks
# Method: as §2
# Stellaria media [5] = test: post-emergence herbicidal action; details: three-leaf stage, 320 g a.i./ha, scored after approx. 3 to 4 weeks
# Method: as §2
# Amaranthus retroflexus [6] = test: post-emergence herbicidal action; details: three-leaf stage, 320 g a.i./ha, scored after approx. 3 to 4 weeks
# Method: as §2
Structure (SMILES),Action against harmful plants SINAL (Sinapis arvensis [1]),Action against harmful plants STEME (Stellaria media [2]),Action against harmful plants AMARE (Amaranthus retroflexus [3]),Action against harmful plants MOOVA (Monochoria vaginalis; 90 g a.i./ha),Action against harmful plants SAGPY (Sagittaria pygmaea; 90 g a.i./ha),Action against harmful plants CYPSE (Cyperus serotinus; 90 g a.i./ha),Crop plant damage ORYSP (Oryza sativa; 90 g a.i./ha),Action against harmful plants SINAL (Sinapis arvensis [4]),Action against harmful plants STEME (Stellaria media [5]),Action against harmful plants AMARE (Amaranthus retroflexus [6]),Action against harmful plants MOOVA (Monochoria vaginalis; 50 g a.i./ha),Action against harmful plants SAGPY (Sagittaria pygmaea; 50 g a.i./ha),Action against harmful plants CYPSE (Cyperus serotinus; 50 g a.i./ha),Crop plant damage ORYSP (Oryza sativa; 50 g a.i./ha)
CN(C(=O)COc1c(S(C)(=O)=O)ccc(C(=O)C2=C(O)CCCC2=O)c1Cl)c1ccccc1 [Compound 1.28],90%,90%,90%,–,–,–,–,–,–,–,–,–,–,–
CCN(CC)C(=O)COc1c(Cl)ccc(C(=O)C2=C(O)CCCC2=O)c1Cl [Compound 3.9],80%,90%,90%,95%,90%,95%,0%,90%,100%,80%,–,–,–,–
CCN(CC)C(=O)COc1c(Br)ccc(C(=O)C2=C(O)CCCC2=O)c1Br [Compound 3.65],80%,90%,90%,–,–,–,–,90%,100%,80%,99%,80%,99%,0%
